The text below walks through data of ChEMBL document CHEMBL5338823, “Discovery of Novel 5,6-Dihydro-1,2,4-triazine Derivatives as Efficacious Glucagon-Like Peptide-1 Receptor Agonists” (J Med Chem, 2023).

For orientation: EC50 means the midpoint of the concentration-response curve. Broadly, the half-life is the time in which the quantity being followed falls by half. The AUC(0-t) is exposure summed from dosing to a finite time, without extrapolation to infinity. As a reminder, the Papp A→B is how fast a substance crosses the layer from the apical side.

The source made the active and inactive calls. The calls are words filed in the database; no cut-off is given here.

Series [1] has as its target T1, Gastric inhibitory polypeptide receptor (Homo sapiens) (UniProt P48546).
T1 sequence (whole entry): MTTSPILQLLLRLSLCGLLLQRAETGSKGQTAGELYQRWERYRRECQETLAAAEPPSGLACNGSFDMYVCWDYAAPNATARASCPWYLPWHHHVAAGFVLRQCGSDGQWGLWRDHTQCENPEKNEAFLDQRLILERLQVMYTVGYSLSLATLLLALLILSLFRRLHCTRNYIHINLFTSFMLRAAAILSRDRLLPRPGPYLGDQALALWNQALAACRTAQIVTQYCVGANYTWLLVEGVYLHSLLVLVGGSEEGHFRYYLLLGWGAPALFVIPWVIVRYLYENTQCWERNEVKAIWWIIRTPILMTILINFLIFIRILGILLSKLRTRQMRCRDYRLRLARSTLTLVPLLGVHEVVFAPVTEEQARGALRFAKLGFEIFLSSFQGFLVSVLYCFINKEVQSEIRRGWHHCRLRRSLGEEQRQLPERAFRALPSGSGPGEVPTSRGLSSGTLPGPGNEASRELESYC
The experiment in a line: Agonist activity at GIPR (unknown origin) expressed in HEK293 cells assessed as effect on intracellular cAMP accumulation incubated for 30 mins by LANCA ultra cAMP assay. It counts as functional, cell-based. On the technique in general: cAMP levels reflect the balance of adenylyl cyclase and phosphodiesterase activity.

The test system of series [2] is Mus musculus. The experiment in a line: In vivo agonist activity at GLP-1R in C57BL/6J mouse with human GLP-1R knock-in assessed as reduction in food intake at 30 mg/kg, sc measured after 2.5 to 12 hrs in dark cycle. The note with it: time 2.5-12 hrs. It counts as functional, organism-based.
Series [3] is described as follows: Drug concentration in C57BL/6J mouse plasma at 5 mg/kg, po measured after 1 hrs by LC-MS/MS analysis. The format is ADME, organism-based.
Series [4] is described as follows: Drug concentration in C57BL/6J mouse plasma at 5 mg/kg, po measured after 4 hrs by LC-MS/MS analysis. It counts as ADME, organism-based.
Series [5] deals with T2, Glucagon-like peptide 2 receptor (Homo sapiens) (UniProt O95838).
T2 sequence (whole entry): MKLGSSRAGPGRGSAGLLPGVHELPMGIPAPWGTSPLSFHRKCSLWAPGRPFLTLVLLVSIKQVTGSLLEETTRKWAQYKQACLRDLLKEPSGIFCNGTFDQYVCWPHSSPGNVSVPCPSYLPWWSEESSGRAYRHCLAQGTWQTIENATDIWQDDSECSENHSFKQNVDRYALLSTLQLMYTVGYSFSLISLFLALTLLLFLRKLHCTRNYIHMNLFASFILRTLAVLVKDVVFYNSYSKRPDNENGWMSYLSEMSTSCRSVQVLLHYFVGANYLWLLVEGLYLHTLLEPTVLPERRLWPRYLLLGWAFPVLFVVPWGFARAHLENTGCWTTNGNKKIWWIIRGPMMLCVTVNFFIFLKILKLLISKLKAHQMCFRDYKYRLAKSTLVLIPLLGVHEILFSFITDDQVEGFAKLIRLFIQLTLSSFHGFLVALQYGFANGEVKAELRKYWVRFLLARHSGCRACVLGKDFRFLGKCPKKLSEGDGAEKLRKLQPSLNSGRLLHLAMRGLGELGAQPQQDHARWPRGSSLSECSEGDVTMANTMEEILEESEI
The experiment in a line: Agonist activity at GLP-2R (unknown origin) expressed in HEK293 cells assessed as effect on intracellular cAMP accumulation incubated for 30 mins by LANCA ultra cAMP assay. The format is functional, cell-based.

The target of series [6] is Glucagon receptor (Homo sapiens) (UniProt P47871). The experiment in a line: Agonist activity at GCGR (unknown origin) expressed in HEK293 cells assessed as effect on intracellular cAMP accumulation incubated for 30 mins by LANCA ultra cAMP assay. It counts as functional, cell-based.
Chain of Glucagon receptor (Homo sapiens) (P47871 whole entry): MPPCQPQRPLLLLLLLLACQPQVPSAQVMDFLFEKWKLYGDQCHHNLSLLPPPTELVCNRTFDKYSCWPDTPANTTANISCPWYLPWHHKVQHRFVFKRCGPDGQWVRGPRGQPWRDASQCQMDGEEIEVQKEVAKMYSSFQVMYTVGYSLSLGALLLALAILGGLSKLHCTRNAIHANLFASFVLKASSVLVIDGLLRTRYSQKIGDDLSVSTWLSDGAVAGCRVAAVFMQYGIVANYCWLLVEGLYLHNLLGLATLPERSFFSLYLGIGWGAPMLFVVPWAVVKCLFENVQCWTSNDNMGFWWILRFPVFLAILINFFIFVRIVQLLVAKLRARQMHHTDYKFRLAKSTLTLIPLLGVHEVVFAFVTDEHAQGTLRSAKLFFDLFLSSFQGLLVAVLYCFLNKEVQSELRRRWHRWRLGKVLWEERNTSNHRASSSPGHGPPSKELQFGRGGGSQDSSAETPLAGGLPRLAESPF
The target in series [7] is T3, Glucagon-like peptide 1 receptor (Homo sapiens, UniProt P43220). The experiment in a line: Partial agonist activity at N-terminal HA-tagged human GLP-1R expressed in HEK293 cells co-expressing Smbit-beta-arrestin 1/2 and GLP-1R-LgBit assessed as beta-arrestin-1 recruitment measured after 5 mins by bioluminescence based NanoBiT assay. The format is functional, cell-based. (In general: Arrestin recruitment assays detect the binding of arrestin to an activated receptor.)
T3 sequence (P43220 whole entry): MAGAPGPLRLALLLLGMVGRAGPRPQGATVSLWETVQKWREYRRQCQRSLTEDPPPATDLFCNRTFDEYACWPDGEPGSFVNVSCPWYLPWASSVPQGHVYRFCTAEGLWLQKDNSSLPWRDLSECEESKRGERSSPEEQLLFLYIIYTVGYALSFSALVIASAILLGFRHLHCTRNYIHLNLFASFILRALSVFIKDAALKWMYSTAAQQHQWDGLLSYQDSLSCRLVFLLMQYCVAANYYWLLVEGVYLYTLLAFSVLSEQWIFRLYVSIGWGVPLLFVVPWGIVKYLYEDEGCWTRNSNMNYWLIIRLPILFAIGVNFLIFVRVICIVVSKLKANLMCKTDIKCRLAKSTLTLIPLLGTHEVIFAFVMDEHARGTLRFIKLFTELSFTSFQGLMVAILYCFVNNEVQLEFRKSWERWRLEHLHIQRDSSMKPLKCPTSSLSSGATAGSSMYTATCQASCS

A short description of series [8]: Stability in rat liver microsomes assessed as half-life at 1 uM measured upto 60 mins in the presence of NADPH by LC-MS/MS analysis. It counts as ADME, Microsome. A general note: Liver microsomes are a subcellular fraction often used to study metabolism.
Series [9] deals with Mus musculus. The experiment in a line: In vivo agonist activity at GLP-1R in C57BL/6J mouse with human GLP-1R knock-in assessed as reduction in blood glucose level at 1 mg/kg, po pre-treated with compound for 1 hrs followed by glucose administration and measured upto 90 mins by Oral Glucose Tolerance Test. The format is functional, organism-based. To be noted: time <= 150.0 min.

The nature of series [10]: Stability in mouse liver microsomes assessed as half-life at 1 uM measured upto 60 mins in the presence of NADPH by LC-MS/MS analysis. It counts as ADME, Microsome.
For series [11], the system named is Mus musculus. The experiment in a line: In vivo agonist activity at GLP-1R in C57BL/6J mouse with human GLP-1R knock-in assessed as reduction in blood glucose level at 1 mg/kg, po pre-treated with compound for 1 hrs followed by glucose administration for 3 hrs and further treated with second glucose dose and measured upto 270 mins by Oral Glucose Tolerance Test. The format is functional, organism-based. To be noted: time <= 330.0 min.

Series [12] in a line: Stability in rat liver microsomes assessed as intrinsic clearance at 1 uM measured upto 60 mins in the presence of NADPH by LC-MS/MS analysis. To be noted: 1 h. The format is ADME, Microsome.
Series [13] has as its target T3, Glucagon-like peptide 1 receptor. The experiment in a line: Agonist activity at N-terminal HA-tagged human GLP-1R expressed in HEK293 cells assessed as effect on intracellular cAMP accumulation incubated for 30 mins by LANCA ultra cAMP assay. The format is functional, cell-based.
The nature of series [14]: AUClast in Sprague-Dawley rat at 5 mg/kg, po measured upto 24 hrs by LC-MS/MS analysis. The format is ADME, organism-based. More on the design: dose 5 mg/kg, time < 24 hrs, route po. The note with it: in vivo.
Series [15] has as its target T3, Glucagon-like peptide 1 receptor. The experiment in a line: Potency index, ratio of danuglipron EC50 to test compound EC50 for partial agonist activity at N-terminal HA-tagged human GLP-1R expressed in HEK293 cells co-expressing Smbit-beta-arrestin 1/2 and GLP-1R-LgBit assessed as beta-arrestin-2 recruitment measured after 5 mins by bioluminescence based NanoBiT assay. It counts as functional, cell-based.

Series [16] has the same target. The experiment in a line: Partial agonist activity at N-terminal HA-tagged human GLP-1R expressed in HEK293 cells co-expressing Smbit-beta-arrestin 1/2 and GLP-1R-LgBit assessed as beta-arrestin-2 recruitment measured after 5 mins by bioluminescence based NanoBiT assay. The format is functional, cell-based.
The target is the same in series [17]. The experiment in a line: Potency index, ratio of danuglipron EC50 to test compound EC50 for partial agonist activity at N-terminal HA-tagged human GLP-1R expressed in HEK293 cells co-expressing Smbit-beta-arrestin 1/2 and GLP-1R-LgBit assessed as beta-arrestin-1 recruitment measured after 5 mins by bioluminescence based NanoBiT assay. It counts as functional, cell-based.

A short description of series [18]: Stability in mouse liver microsomes assessed as intrinsic clearance at 1 uM measured upto 60 mins in the presence of NADPH by LC-MS/MS analysis. It counts as ADME, Microsome. The note with it: 1 h.
The nature of series [19]: Half-life in Sprague-Dawley rat at 5 mg/kg, po measured upto 24 hrs by LC-MS/MS analysis. The format is ADME, organism-based. To be noted: in vivo.
Series [20] can be described thus: Apparent permeability across apical to basolateral side in human Caco-2 cells at 10 uM measured after 95 mins by LC-MS/MS analysis. It counts as ADME, cell-based.
A short description of series [21]: Stability in human liver microsomes assessed as half-life at 1 uM measured upto 60 mins in the presence of NADPH by LC-MS/MS analysis. It counts as ADME, Microsome.

`COc1cc(C(F)(F)F)ccc1COc1cccc(N2C=NN(Cc3nc4c(F)cc(C(=O)O)cc4n3C[C@@H]3CCO3)CC2)n1`: the result in series [1], in [5] and in series [6] was inactive. Besides, the outcome in series [2], in series [9] and in series [11] was Active. The molecule further showed a concentration at 1 h in series [3] of 132 ng/mL. In addition, the concentration at 4 h in series [4] was found to be 35 ng/mL. For the same molecule, the values for the EC50 in series [7], in series [13] and in series [16] were 175 nM, 0.006 nM and 136 nM, respectively. The half-life at 1 µM was found to be 1.25 h in series [8], 1.28 h in series [10] and 2.87 h in [21]. The figures for the CLH in [12] and in series [18] were 28 mL/min/g and 27 mL/min/g, respectively. Also, the AUC(0-t) at 24 h in series [14] came to 70 ng·h/mL. In addition, the Ratio EC50 in [15] and in series [17] was 10 in each case. Besides, the half-life in series [19] is 1.05 h. In addition, the Papp A→B at 1.583 h, 10 µM in series [20] was 0.57 ×10⁻⁶ cm/s.
